Test results: patent publication US12076436B2, “Bacterial ferment of Lactobacillus species” (Symrise AG, priority 2021, dated 2024)

What was measured:
Lactobacillus cultures = assay: Reduction of Lactobacillus viability by treatment with lactic acid (plating of serial dilutions); assay type: cell-based
Interleukin-8 (IL8) = assay: IL8 secretion by EpiDerm 3D reconstituted skin models after IL1a stimulation (ELISA); assay type: cell-based, human; settings: supernatants; 72 h topical treatment, then 1 μg/ml IL1a approx. 24 h; triplicates; dexamethasone at 50 μM
Experimental: (§1) To assess the effect of the bacterial ferment according to the invention on the secretion levels of IL8, reconstituted 3D skin models (EpiDerm™, MatTek) were used. After a short acclimation phase (daily medium changes), the models were switched to hydrocortisone-free medium, and test compounds were added topically to the reconstituted models. 50 μM dexamethasone was used as positive control, PBS served as negative control in the experiment. After 72 h incubation at 37° C. 5% CO2, the 3D models were washed with PBS and subsequently, an inflammatory response was stimulated by addition of 1 μg/ml Ma in the medium for approx. 24 h. Supernatants were collected after this phase and the IL8 concentration in these supernatants was determined using an ELISA kit (Human […] DuoSet ELISA, R&D Systems). To assess potential toxic effects of the test compounds on the 3D models, a standard MTT assay was carried out to assess viability of the 3D models at the end of the experiment.

[1] = system: MatTek EpiDerm 3D reconstituted skin models; assay: MTT viability of the 3D skin models; assay type: cell-based, human; settings: MTT assay at end of experiment; dexamethasone at 50 μM
Experimental: as §1

Compound | Lactobacillus count (log cfu/ml) (Lactobacillus cultures; 2 % (w/v) lactic acid, 37° C., 12 h) | Lactobacillus count (log cfu/ml) (Lactobacillus cultures; 2.8 % (w/v) lactic acid, 37° C., 12 h) | Lactobacillus count (log cfu/ml) (Lactobacillus cultures; 3 % (w/v) lactic acid, 37° C., 12 h) | Lactobacillus count (log cfu/ml) (Lactobacillus cultures; 3.4 % (w/v) lactic acid, 37° C., 12 h) | Lactobacillus count (log cfu/ml) (Lactobacillus cultures; 3.6 % (w/v) lactic acid, 37° C., 12 h) | Lactobacillus count (log cfu/ml) (Lactobacillus cultures; 4 % (w/v) lactic acid, 37° C., 12 h) | Lactobacillus count (log cfu/ml) (Lactobacillus cultures; 4.4 % (w/v) lactic acid, 37° C., 12 h) | Lactobacillus count (log cfu/ml) (Lactobacillus cultures; 4.8 % (w/v) lactic acid, 37° C., 12 h) | Lactobacillus count (log cfu/ml) (Lactobacillus cultures; 5 % (w/v) lactic acid, 37° C., 12 h) | Lactobacillus count (log cfu/ml) (Lactobacillus cultures; 5.4 % (w/v) lactic acid, 37° C., 12 h) | Lactobacillus count (log cfu/ml) (Lactobacillus cultures; 6 % (w/v) lactic acid, 37° C., 12 h) | Lactobacillus count (log cfu/ml) (Lactobacillus cultures; 6.8 % (w/v) lactic acid, 37° C., 12 h) | lactic acid concentration range of optimal reduction of Lactobacillus count (Lactobacillus cultures; 37° C., 12 h) | reduction in bacterial count by short pH shock with lactic acid (Lactobacillus cultures; step c of the method, bacterial ferment supernatant) | IL-8 concentration [pg/ml] ± SEM (Interleukin-8 (IL8)) [pg/mL] | Viability (% vs stimulated control) [1] [% vs stimulated control]
CC(O)C(=O)O (stereo not shown) [Lactic Acid, lactic acid] | 7.54 | 7.08 | 5.45 | 4.72 | 5.09 | 3.52 | 3.60 | 3.00 | 1.00 | 1.38 | 1.95 | 1.70 | ca. 5 % (w/v) | at least 9 order |  | 
C[C@@H]1C[C@H]2[C@@H]3CCC4=CC(=O)C=C[C@]4(C)[C@@]3(F)[C@@H](O)C[C@]2(C)[C@@]1(O)C(=O)CO [Dexamethasone, dexamethasone] |  |  |  |  |  |  |  |  |  |  |  |  |  |  | 1225 ± 18.61 | 90
